Measurements: patent publication US7252822B2, “Methods for treating post-surgical pain by administering an anti-nerve growth factor antagonist” (Rinat Neuroscience Corp., priority 2002, dated 2007)

Legend:
Male Sprague Dawley rats = assay: Post-surgical pain model (hind paw incision): resting pain, cumulative pain score; format: in vivo; conditions: rat
Method: We used a pain model that mimics post surgical pain to assess the efficacy of treatment with anti-NGF antibody 911 (a mouse monoclonal antibody; see Hongo, et al., Hybridoma 19:215-227 (2000). Each experiment involved 16 animals (n=8 per group). The anti-NGF antibody was injected intra peritoneal (i.p.) at various concentratiosn per experiment (35 or 7 milligrams per kilogram) 15 hours pre-incision. The control group received no antibody but was injected i.p. with a saline solution.
Animals. Male Sprague Dawley rats weighting between 220-240 grams were purchased from Harlan (San Diego) and acclimated to the animal facility for one week prior to surgery.
Surgery. The surgery was based on the procedure described by Brennan, et al. Pain 64:493-501 (1996). Animals were anesthetized with a 2% isoflurane in air mixture that was maintained during surgery via a nose cone. The plantar surface of the right hind paw was prepared with a povidone-iodine pad, and a 1-cm central longitudinal incision was made through skin and fascia, starting 0.5 cm from the edge of the heel and extending toward the toes. Measurements were made with a ruler with the foot held in a flexed position. The plantaris muscle was elevated using curved forceps and incised longitudinally. The muscle was incised through its full depth, between the origin and insertion. Bleeding was controlled throughout surgery by pressure applied through a gauze pad. The wound was closed with two mattress sutures (5-0 ethilon black monofilament). These sutures were knotted 5-6 times, with the first knot loosely tied. The wound site was swabbed with bacitracin solution. Animals were allowed to recover and rest in clean cages for two hours or more before behavioral testing began.
Evaluating resting pain. A cumulative pain score was used to assess pain related to weight bearing. Animals were placed on a plastic mesh (grid: 8 mm^2) in clear plastic cages that were elevated on a platform (h: 18″) allowing inspection of the underside of their paws. After a 20 minute acclimation period, weight bearing was assessed on a scale of 0 to 2. A score of 0 was given if the paw was blanched or pressed against the mesh, indicating full weight bearing. A score of 1 was given if the paw was favored with the skin just touching the mesh, with no blanching or indentation of the skin. A score of 2 was given if the paw was held completely off the mesh. Flinching the paw was considered a 2 if the rat was still at rest. […] The sum of 6 scores (0-12) obtained during ½ hour was used to assess pain in the incised foot. Frequency of scores of 2 was also calculated and used to assess the incidence of severe pain or total guarding of the paw by the animal. Each animal was tested 24 hours before surgery (baseline), and 2 h, 24 h, 48 h, and 72 h postoperatively. […]

Male Sprague-Dawley rats = assay: Wound healing after dorsal skin incision: proportion of intact wounds; format: in vivo; conditions: rat, 5 mg/kg daily for five days intramuscularly, positive control; p<0.0005 vs saline or 911; FIG. 8
Excerpt: Male Sprague-Dawley rats weighing 250-350 grams were purchased from Harlan (Wisconsin) were brought into the facility and acclimated for at least one week. Animals were anaesthetized with isoflurane and the dorsal surface (back) was shaved and cleaned with povidone iodine followed by an alcohol pad. A 2.5 cm incision through the skin was made on the midline between the scapulae. Bleeding was controlled with pressure with a gauze pad. The wound was closed with four single 4-0 ethilon sutures and the animals were allowed to recover. Animals were then divided into three groups: one group receiving a single does of mouse monoclonal anti-NGF antibody 911 at the time of surgery (1 mg/kg, i.p.); one group receiving Ketorolac (5 mg/kg daily for five days starting the day of surgery, intramuscularly (IMO) as a positive control; and a saline treated control group (negative control). Ketoralac is known to inhibit wound healing. Haws et al. (1996) Ann Plast Surg. 37(2):147-51; Gerstenfeld et al. (2003) J Orthop Res. 21(4):670-5.
The area of the incision was examined and photographed daily starting at day one post surgery. […] Incisions were scored as “intact” if the entire incision remained closed, and “failed” if some or all of the incision re-opened. Results were expressed as the proportion of intact wounds (i.e., the number of intact wounds divided by the total number of animals scored).

human NGF = target: T1, human NGF (human, UniProt P01138 122-239, limits assumed); assay: binding affinity; method not given
T1 construct: also called hNGF; human nerve growth factor
T1 sequence (P01138 122-239 limits assumed): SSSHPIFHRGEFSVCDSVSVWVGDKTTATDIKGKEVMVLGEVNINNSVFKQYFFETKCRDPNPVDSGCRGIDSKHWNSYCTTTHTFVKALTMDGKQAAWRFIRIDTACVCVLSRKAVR

Molecule: COC(=O)[C@@]1(O)C[C@H]2O[C@]1(C)n1c3ccccc3c3c4c(c5c6ccccc6n2c5c31)C(=O)NC4 [K252a]
- cumulative resting pain score three hours after dosing (Male Sprague Dawley rats; in vivo, ip, 4 mg/kg): significantly reduced resting pain
- resting pain reduction compared with anti-NGF antibody in similar experiments (Male Sprague Dawley rats; in vivo, ip, 4 mg/kg): reduced resting pain to the same extent that treatment with anti-NGF antibody did

Molecule: O=C(c1ccccc1)c1ccc2n1CCC2C(=O)O (stereo not drawn) [ketorolac]
- wound healing (proportion of intact wounds) (Male Sprague-Dawley rats): significantly inhibited

B1: humanized anti-NGF antibody E3 (antibody, V domains shown)
VH: QVQLQESGPGLVKPSETLSLTCTVSGFSLIGYDLNWIRQPPGKGLEWIGIIWGDGTTDYNSAVKSRVTISKDTSKNQFSLKLSSVTAADTAVYYCARGGYWYATSYYFDYWGQGTLVTVS
VL: DIQMTQSPSSLSASVGDRVTITCRASQSISNNLNWYQQKPGKAPKLLIYYTSRFHSGVPSRFSGSGSGTDFTFTISSLQPEDIATYYCQQEHTLPYTFGQGTKLEIKR
- Kd (human NGF): ~0.07 nM

B2: E3: humanized mouse anti-NGF monoclonal antibody; human IgG2a constant region with A330P331 to S330S331, kappa light chain, variable regions SEQ ID NO:1 and 2 (antibody, V domains shown)
VH: QVQLQESGPGLVKPSETLSLTCTVSGFSLIGYDLNWIRQPPGKGLEWIGIIWGDGTTDYNSAVKSRVTISKDTSKNQFSLKLSSVTAADTAVYYCARGGYWYATSYYFDYWGQGTLVTVS
VL: DIQMTQSPSSLSASVGDRVTITCRASQSISNNLNWYQQKPGKAPKLLIYYTSRFHSGVPSRFSGSGSGTDFTFTISSLQPEDIATYYCQQEHTLPYTFGQGTKLEIKRT
- resting pain (cumulative pain score) 24 hours after surgery (Male Sprague Dawley rats; 0.02 mg/kg to 1 mg/kg i.p. 15 hours pre-incision, p<0.05 vs saline, FIG. 4): significantly reduced resting pain
- resting pain (cumulative pain score) 24 hours after surgery (Male Sprague Dawley rats; 0.5 mg/kg i.v. two hours after incision, vs saline, FIG. 5): significantly (p<0.05) reduced resting pain
